Eight molecules from patent publication US12441716B2, “Compositions and methods for increasing muscle mass and oxidative metabolism” (The Regents of the University of California, priority 2019, dated 2025) can be followed below.

Molecules are shown by their SMILES.

The test system of data set [1] is endogenous Myosin light chain-2 (Myl2) expression in C2C12 cells. Description: Myl2 expression in C2C12 cells, RT-PCR normalized to GAPDH. Particulars: for Myl2 Relative expression/Gapdh at 2.5 μM: C2C12 cells, relative to GAPDH house-keeping control gene. Type of data set: cell-based. The protocol: Bioactivity data of AMBMP analogs 1-6, 17, 18, and 25. Dose dependent effect of AMBMP analogs 1-6, 17, 18, and 25 on endogenous Myosin light chain-2 (Myl2) expression in C2C12 cells is shown in FIG. 16 A.
Effect of 2.5 μM AMBMP analog 1-6, 8, 17, 21, 25, 38, 39, and 40 on Myl2 expression relative to GAPDH (house-keeping control gene) in C2C12 cells is shown in Table 1. Myl2 is a marker of CaMKIIβ activity.
AMBMP analog 40 was tested in C2C12 myogenic cells for its ability to induce expression of Myl2. C2C12 cells were treated with AMBMP or AMBMP analog 40 for 48 hrs (concentrations are indicated on the graph); DMSO was used as a negative control. Expression of Myl2 was assessed by RT-PCR and normalized to GAPDH as a house-keeping control gene.

Data set [2] is described as follows: log P (partition coefficient between organic and aqueous phase). Type of data set: physicochemical. An excerpt: It has been determined that compounds having a chemical structure of Formula I and/or Formula VII, or a pharmaceutically acceptable salt or solvate thereof, can increase muscle mass and muscle function. These chemicals can be effective in treating muscular dystrophy, such as limb girdle muscular dystrophy type 2A/R1/D1. Not to be bound by theory, it is believed that these compounds may provide their biological effect by over-riding the CAMKII signaling block by activating CaMKII. Accordingly, these can increase muscle size, mitochondrial complex I and II activity, expression of genes that comprise the slow fiber phenotype and running performance. Embodiments of the current disclosure is directed to compositions and methods of use for compounds having a chemical structure of Formula I and/or Formula VII, or a pharmaceutically acceptable salt or solvate thereof, that show similar or higher activity on CAMKII signaling as of AMBMP, but are less toxic and/or more soluble than AMBMP (Formula VI). […] One or more compounds having a chemical structure of Formula I and/or Formula VII, can have a EC50 potency of <1 uM on endogenous myosin light chain 2 (Myl2) promoter in C2C12 cells. The compounds can have a solubility >10 uM in water at standard temperature and pressure. […] Toxicity can be measured as a dose dependent effect of the compounds on cell death of C2C12 cells.

Data set [3] addresses T1, CaMKIIβ (Mus musculus, UniProt P28652).
T1 construct: from tissue; host or cells: tissue of treated C3KO and WT mice
Description: CaMKIIβ activation in mouse skeletal muscles after injection, western blot with anti-phospho CaMKIIβ antibody. Type of data set: in vivo. Particulars: mice, 10 mg/kg intraperitoneally; muscles collected 2, 4 and 6 hrs after injection; DMSO control. Here is the method: Mice were injected intraperitoneally with 10 mg/kg of AMBMP analog 3. Skeletal muscles were collected at 2, 4 and 6 hrs after injection. Mice injected with DMSO were used as a control group.

The test system of data set [4] is C2C12 myogenic cells. The experiment in a line: Tolerance of C2C12 myogenic cells to compound. Type of data set: cell-based. Particulars: data not shown.
Data set [5] concerns C3KO mice. The experiment in a line: Muscle fiber cross-sectional area in treated C3KO mice. Particulars: 7.5 mg/kg/day for 14 days, i.p. or subQ injection. Type of data set: in vivo. Here is the method:
(§1) Average cross-sectional area (CSA) measured in muscle cross sections after staining for fiber type. […] A) C3KO mice i.p. injected with AMBMP hydrochloride (7.5 mg/kg/day) for 14 days. B) C3KO mice treated AMBMP hydrochloride (7.5 mg/kg/day) for 14 days by subcutaneous (subQ) injection.

Data set [6] concerns C3KO mice. Description: Mitochondrial function / mitochondrial content (NADH staining) in muscles of treated C3KO mice. Type of data set: in vivo. Here is the method:
as §1
One set of C3KO mice were i.p. injected with AMBMP hydrochloride (7.5 mg/kg/day) for 14 days, another set of C3KO mice were i.p. injected with AMBMP hydrochloride (15 mg/kg/day) for 14 days and a control set of C3KO mice were not treated with AMBMP. Percent of total fibers with high mitochondrial content and intermediate mitochondrial content increased with AMBMP treatment in a dose dependent manner, and percent of total fibers with low mitochondrial content decreased with AMBMP treatment in a dose dependent manner (FIG. 12A). […] Quantification of NADH staining on plantaris muscles from AMBMP-treated mice (either 7.5 or 15 mg/kg, for 2 weeks (wks)) shown as a ratio of FOG:FG fibers. *p<0.05.

In data set [7] the test system is C3KO mice. The experiment in a line: Exercise performance after endurance training in C3KO mice. Type of data set: in vivo. Particulars: i.p. 7.5 mg/kg/day for 14 days, 3-week endurance training. An excerpt: Shown in FIG. 13, AMBMP treatment leads to improved exercise performance. Mice were subjected to endurance training over a 3-week period while being treated. Exercise performance was compared between pre and post exercise condition. Wild type (WT) mice were not treated with AMBMP.

Data set [8] addresses T1, CaMKIIβ. Description: CaMKIIβ activity in mice treated for 2 weeks. Particulars: i.p. 7.5 mg/kg/day for 2 weeks. Type of data set: in vivo. An excerpt:
(§2) Shown in FIG. 14, C3KO mice treated with AMBMP have normalized CaMKIIβ activity, but AKT or AMPK signaling are not affected.

Data set [9] concerns AKT. The experiment in a line: AKT signaling in treated C3KO mice. Type of data set: in vivo. Particulars: i.p. 7.5 mg/kg/day for 2 weeks.
Excerpt: as §2

For data set [10], the system named is AMPK. Description: AMPK signaling in treated C3KO mice. Type of data set: in vivo. Particulars: i.p. 7.5 mg/kg/day for 2 weeks.
Excerpt: as §2

The test system of data set [11] is Capn3−/− muscles. The experiment in a line: Percent slow myosin heavy chain positive fibers in soleus of calpainopathy mice. Type of data set: in vivo. Particulars: daily for 2 wks at 30 mg/kg subQ.

T1 sequence (P28652 whole entry): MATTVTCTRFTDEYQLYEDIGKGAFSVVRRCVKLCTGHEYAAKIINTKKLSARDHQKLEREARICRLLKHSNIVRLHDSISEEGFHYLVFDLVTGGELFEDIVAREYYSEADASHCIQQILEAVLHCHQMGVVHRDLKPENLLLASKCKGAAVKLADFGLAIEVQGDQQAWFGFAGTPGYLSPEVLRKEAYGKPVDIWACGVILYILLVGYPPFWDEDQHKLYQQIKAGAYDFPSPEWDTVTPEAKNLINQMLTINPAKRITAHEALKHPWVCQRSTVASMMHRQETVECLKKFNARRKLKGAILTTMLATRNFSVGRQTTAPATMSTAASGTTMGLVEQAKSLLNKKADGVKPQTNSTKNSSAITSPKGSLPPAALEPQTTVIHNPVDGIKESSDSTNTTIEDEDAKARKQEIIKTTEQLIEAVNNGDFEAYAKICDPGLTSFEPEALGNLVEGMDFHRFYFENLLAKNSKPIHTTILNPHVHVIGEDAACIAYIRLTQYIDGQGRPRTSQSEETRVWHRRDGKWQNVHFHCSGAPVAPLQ

Turning to `Nc1nc(NCc2ccc3c(c2)OCO3)cc(-c2cccc(O)c2)n1` [AMBMP Analog 3, 3-(2-amino-6-((benzo[d][1,3]dioxol-5-ylmethyl)amino)pyrimidin-4-yl)phenol], the “Myl2 Relative expression/Gapdh at 2.5 μM” value in data set [1] is reported as 0.4. The molecule also gave a logP in data set [2] of 2.47. For the same molecule, the “phospho-CaMKIIβ (P-CaMK) in skeletal muscles” value in data set [3] is recorded as “CaMKIIβ activation”.
`CCOc1cccc(-c2cc(NCc3ccc4c(c3)OCO4)nc(N)n2)c1` [AMBMP Analog 4]: the “Myl2 Relative expression/Gapdh at 2.5 μM” value in data set [1] worked out at 2.
Still for that read-out and setting: the same measure for `CCCOc1cccc(-c2cc(NCc3ccc4c(c3)OCO4)nc(N)n2)c1` [AMBMP Analog 5]: 0.6.
As for `CC(C)(C)Oc1cccc(-c2cc(NCc3ccc4c(c3)OCO4)nc(N)n2)c1` [AMBMP Analog 6], the “Myl2 Relative expression/Gapdh at 2.5 μM” value in data set [1] was found to be 1.2.
For the molecule `Nc1nc(NCc2ccc3c(c2)OCO3)cc(-c2ccc(OC(F)(F)F)cc2)n1` [AMBMP Analog 17], in [1], the “Myl2 Relative expression/Gapdh at 2.5 μM” value is given as 0.2.
`COc1cc(O)cc(-c2cc(NCc3ccc4c(c3)OCO4)nc(N)n2)c1` [AMBMP Analog 40, 3-(2-amino-6-((benzo[d][1,3]dioxol-5-ylmethyl)amino)pyrimidin-4-yl)-5-methoxyphenol]: in data set [1], the “Myl2 Relative expression/Gapdh at 2.5 μM” value worked out at 1.2. For the same molecule, in data set [1] (C2C12 myogenic cells treated 48 hrs (1.25 μM, 5 μM), RT-PCR normalized to GAPDH, DMSO negative control), the “increase of Myl2 expression” value is given as 2.5-2.9 fold. The “tolerance by the cells compared to AMBMP” value in data set [4] is “better tolerated”.
On to `COc1cccc(-c2cc(NCc3ccc4c(c3)OCO4)nc(N)n2)c1.Cl` [AMBMP hydrochloride], for which, in data set [5], the “cross-sectional area of slow fibers” value was “significantly increased” and the “cross-sectional area, both fiber types” value is “increase”. For the same molecule, the “mitochondrial function compared to control” value in [6] (i.p. 7.5 mg/kg/day for 14 days) is “improved mitochondrial function”. Further, the mitochondrial content entry in [6] (i.p. 7.5 or 15 mg/kg/day for 14 days, plantaris muscles) is “increased mitochondrial content in a dose dependent manner”. In addition, in [7], the “exercise performance pre vs post endurance training” value is reported as “show a training effect”. For the same molecule, the “CaMKIIβ activity over untreated control” value in data set [8] (C3KO mice) is “increased CaMKIIβ activity”. The “CaMKIIβ activity over untreated control” value in data set [8] (WT mice) is “increased CaMKIIβ activity”. Further, in data set [9], the AKT signaling result is listed as “without impacting”. In data set [10], the AMPK signaling result was “without impacting”.
Take `COc1cccc(-c2cc(NCc3ccc4c(c3)OCO4)nc(N)n2)c1` [AMBMP]: the “Myl2 Relative expression/Gapdh at 2.5 μM” value in data set [1] worked out at 1.4. The “% slow myosin heavy chain positive fibers in soleus” value in [11] is recorded as “Statistically significant shift”.
